Source: ChEMBL document CHEMBL1201862, “PubChem BioAssay data set” (2004)
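Dose response: 5 concentrations. Exposure: 48 h. Format: 96-well plates. Endpoint: linear interpolation; highest concentration if not reached. At the GI50, growth is halved.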 The source made the active and inactive calls. Cut-off read from the data, not from the text of the source: active = GI50 up to about 1.1 µM and inactive = higher. Non-standard residues stand in square brackets, D forms with d. Residues, ends and D or L forms follow the SMILES beside them. ξ: configuration not given here. *: point of attachment. ξHyp = O=C(O)C1CC(O)CN1; Cbz = O=C(OCc1ccccc1)*

Legend:
Assay in all cases: NCI tumour cell line growth inhibition, 48 h
HT-29 = test system: HT-29
KM12 = test system: KM12
OVCAR-3 = test system: OVCAR-3
OVCAR-4 = test system: OVCAR-4
COLO 205 = test system: COLO 205
MOLT-4 = test system: MOLT-4
HCC 2998 = test system: HCC 2998
SNB-19 = test system: SNB-19
SN12C = test system: SN12C
NCI-H23 = test system: NCI-H23
SK-OV-3 = test system: SK-OV-3
A549 = test system: A549
OVCAR-8 = test system: OVCAR-8
UACC-257 = test system: UACC-257
EKVX = test system: EKVX
SF-295 = test system: SF-295
SK-MEL-5 = test system: SK-MEL-5
U-251 = test system: U-251
NCI-H460 = test system: NCI-H460
SF-539 = test system: SF-539

Measured: GI50

CCCC[C@H]1[C@@H](OCOc2ccccc2)COC(=O)N1[C@H](C)c1ccccc1
inactive: HT-29 > 34.2 µM | KM12 12.9 µM | OVCAR-3 14.7 µM | OVCAR-4 10.3 µM | COLO 205 25.9 µM | MOLT-4 4.54 µM | HCC 2998 17.7 µM | SNB-19 21.3 µM | SN12C 10.2 µM | NCI-H23 18.2 µM | SK-OV-3 22.4 µM | A549 8.79 µM | OVCAR-8 > 49.2 µM | UACC-257 9.66 µM | EKVX 25.4 µM | SF-295 11.9 µM | SK-MEL-5 4.03 µM | U-251 14.7 µM | NCI-H460 12.6 µM

Cc1cccc(N2C(=O)C3c4[nH]c5ccc(C)cc5c4C4CCC(C(C)(C)C)CC4C3C2=O)c1 (centres undefined)
inactive: HT-29 21.4 µM | KM12 15.8 µM | OVCAR-3 13.6 µM | OVCAR-4 23.1 µM | COLO 205 17.4 µM | MOLT-4 8.97 µM | SNB-19 25.2 µM | NCI-H23 26.1 µM | A549 15.8 µM | OVCAR-8 19 µM | UACC-257 46.3 µM | EKVX 10.4 µM | SF-295 19.4 µM | SK-MEL-5 32.5 µM | U-251 23.6 µM | NCI-H460 13.3 µM

CC1=NN(C(=O)c2cc(Cl)cc([N+](=O)[O-])c2)C(=O)C1/N=N/c1ccccc1C(=O)O (centres undefined)
inactive: HT-29 > 100 µM | SF-539 > 100 µM | KM12 > 100 µM | OVCAR-3 > 100 µM | COLO 205 > 100 µM | MOLT-4 > 100 µM | HCC 2998 > 100 µM | SNB-19 > 100 µM | SN12C > 100 µM | NCI-H23 > 100 µM | SK-OV-3 > 100 µM | A549 > 100 µM | OVCAR-8 > 100 µM | UACC-257 > 100 µM | EKVX > 100 µM | SF-295 > 100 µM | SK-MEL-5 > 100 µM | U-251 > 100 µM | NCI-H460 > 100 µM

NC(=O)CNC(=O)C1CC(O)CN1C(=O)OCc1ccccc1 (centres undefined) (Cbz-[ξHyp]-Gly-NH2)
inactive: HT-29 > 100 µM | KM12 > 100 µM | OVCAR-3 > 100 µM | OVCAR-4 > 100 µM | COLO 205 > 100 µM | MOLT-4 > 100 µM | HCC 2998 > 100 µM | SNB-19 > 100 µM | SN12C > 100 µM | NCI-H23 > 100 µM | SK-OV-3 > 100 µM | A549 > 100 µM | OVCAR-8 > 100 µM | UACC-257 > 100 µM | EKVX 41.4 µM | SF-295 > 100 µM | SK-MEL-5 > 100 µM | U-251 > 100 µM | NCI-H460 > 100 µM

CCOC(=O)CCc1c(C)c2c(OC(C)=O)cc(OC(C)=O)cc2oc1=O
inactive: HT-29 35.6 µM | SF-539 70 µM | KM12 37.4 µM | OVCAR-3 27.4 µM | OVCAR-4 42 µM | COLO 205 > 100 µM | HCC 2998 82.8 µM | SNB-19 65.9 µM | SN12C 28.4 µM | NCI-H23 44.8 µM | A549 47.2 µM | OVCAR-8 69.3 µM | UACC-257 38.9 µM | EKVX 58.3 µM | SF-295 56.5 µM | U-251 55.6 µM | NCI-H460 32.5 µM

CCOC(=O)C(O)(NC(=O)c1ccc(F)cc1)C(F)(F)F (centres undefined)
inactive: HT-29 > 100 µM | SF-539 > 100 µM | KM12 > 100 µM | OVCAR-3 > 100 µM | OVCAR-4 > 100 µM | COLO 205 > 100 µM | MOLT-4 > 100 µM | HCC 2998 > 100 µM | SNB-19 > 100 µM | SN12C > 100 µM | NCI-H23 > 100 µM | SK-OV-3 > 100 µM | A549 > 100 µM | OVCAR-8 > 100 µM | UACC-257 > 100 µM | EKVX > 100 µM | SF-295 > 100 µM | SK-MEL-5 > 100 µM | U-251 > 100 µM

CCOC(C)OC1CC(n2cc(C)c(=O)[nH]c2=O)OC1CO (centres undefined)
inactive: HT-29 > 100 µM | SF-539 > 100 µM | KM12 > 100 µM | OVCAR-3 > 100 µM | OVCAR-4 > 100 µM | COLO 205 > 100 µM | MOLT-4 > 100 µM | HCC 2998 > 100 µM | SNB-19 > 100 µM | SN12C > 100 µM | NCI-H23 > 100 µM | SK-OV-3 > 100 µM | A549 > 100 µM | OVCAR-8 > 100 µM | UACC-257 > 100 µM | EKVX > 100 µM | SF-295 > 100 µM | U-251 > 100 µM | NCI-H460 > 100 µM

CCN(CC)CCOC(=O)c1ccc(N)cc1.CCOC(=O)Nc1ccc(S(=O)(=O)OC)cc1.CCOC(=O)Nc1ccc(S(=O)(=O)OC)cc1.Nc1ccc(C(=O)O)c(O)c1
inactive: HT-29 > 100 µM | SF-539 > 100 µM | KM12 > 100 µM | OVCAR-3 > 100 µM | OVCAR-4 > 100 µM | MOLT-4 > 100 µM | HCC 2998 > 100 µM | SNB-19 > 100 µM | SN12C > 100 µM | NCI-H23 > 100 µM | SK-OV-3 > 100 µM | A549 > 100 µM | OVCAR-8 > 100 µM | UACC-257 > 100 µM | EKVX > 100 µM | SF-295 > 100 µM | SK-MEL-5 > 100 µM | U-251 > 100 µM | NCI-H460 > 100 µM

O=C(c1ccccn1)C1(N2CCCCC2)CCCCC1
inactive: HT-29 78 µM | SF-539 > 100 µM | KM12 > 100 µM | OVCAR-3 > 100 µM | OVCAR-4 > 100 µM | COLO 205 > 100 µM | MOLT-4 > 100 µM | HCC 2998 > 100 µM | SNB-19 > 100 µM | SN12C > 100 µM | NCI-H23 91.6 µM | SK-OV-3 > 100 µM | A549 > 100 µM | OVCAR-8 > 100 µM | UACC-257 > 100 µM | EKVX > 100 µM | SF-295 > 100 µM | SK-MEL-5 > 100 µM | U-251 > 100 µM

CC1=C[C@]2(CC(C)C3C(CC4(C)C5CCC6C(C)(C)C(=O)CC[C@@]67C[C@@]57CC[C@]34C)O2)OC1=O (some centres undefined)
inactive: HT-29 9.31 µM | SF-539 13.8 µM | KM12 18.9 µM | OVCAR-4 19 µM | COLO 205 36.9 µM | MOLT-4 10.7 µM | HCC 2998 18.1 µM | SNB-19 15.7 µM | SN12C 41.1 µM | NCI-H23 7.64 µM | A549 16.6 µM | OVCAR-8 25.2 µM | UACC-257 8.63 µM | EKVX 44.8 µM | SF-295 25.3 µM | SK-MEL-5 2.65 µM | U-251 14.6 µM | NCI-H460 19.4 µM
